Legend:
PKCα = target: T1, PKCα (Homo sapiens, UniProt P17252); assay: PMA mediated PKCα sub-cellular translocation, measured by kinase activity after photocleavable antibody isolation; type: cell-based; conditions: cultured HeLa cells, 200 nM PMA for 5 min, detergent fractionated; based on kinase activity of isolated PKCα; n=4
T1 construct: isolate and photo-release endogenous PKCa from the undiluted detergent fractionated HeLa cell extracts; endogenous in cells; host or cells: HeLa (ATCC)
Procedure: FIG. 20. Phorbol ester (PMA) mediated protein kinase Cα (PKCα) sub-cellular translocation as measured by functional activity following isolation with photocleavable antibodies. Cultured HeLa cells were stimulated with 200 nM PMA for 5 min and detergent fractionated into the cytosol and membrane compartments prior to isolation and purification with the photocleavable antibodies.
Cultured HeLa cells (ATCC; Manassas, Va.) were stimulated for 5 min with 200 nM Phorbol-12-Myristate-13-Acetate (PMA; EMD Biosciences, Inc., San Diego, Calif.) and subsequently detergent fractionated into sub-cellular compartments according to reported procedures [Ramsby et al. (1994) Electrophoresis 15, 265-277; Ramsby & Makowski. (1999) Methods Mol Biol 112, 53-66; Chiang et al. (2000) J Biochem Biophys Methods 46, 53-68]. PMA is a potent activator of PKCα and is well known to cause translocation of the kinase from the cytosolic to the membrane sub-cellular compartments [Ross & Joyner. (1997) Endothelium 5, 321-332; Bazan & Rapoport. (1996) JPharmacol Toxicol Methods 36, 87-95; Yazlovitskaya & Melnykovych. (1995) Cancer Lett 88, 179-183]. […]

MDM2 = target: T2, MDM2 (Homo sapiens, UniProt Q00987); assay: p53-MDM interaction assay, complexes pre-formed before contact photo-transfer; type: binding; conditions: complex formed in solution, captured on beads, contact photo-transferred
T2 construct: polyhistidine (C); made in house; host or cells: rabbit reticulocyte lysate, cell-free (MDM2)
Procedure: All steps were performed at +4° C. or on an ice water bath and all reagents and samples were also kept under these conditions during the procedure. […] To facilitate addition of small bead volumes to the samples, the beads were initially prepared to a 10% (v/v) bead suspension with 5 mM DTT in PBS. The samples, now 80 μL each, were then mixed with 10 μL of the 10% (v/v) bead suspension corresponding to addition of 1 μL packed bead volume. After capture on the NeutrAvidin beads for 1 hr, beads were washed by mixing 3× briefly (briefly=5 sec vortex mix) in 400 bead volumes per wash of PBS pH 7.5 and 5 mM DTT. The washing procedure was performed in batch mode using 0.45 micron pore size, PVDF membrane, micro-centrifuge Filtration Devices to facilitate manipulation of the small volumes of affinity matrix (˜100 micron beads) and exchange the buffers (Ultrafree-MC Durapore Micro-centrifuge Filtration Devices, 400 μL capacity; Millipore, Billerica, Mass.). Prior to contact photo-transfer of the captured and isolated proteins, the washed pellet of 1 μL of NeutrAvidin agarose beads was suspended in a final volume of 50 μL of 50% glycerol and 5 mM DTT in PBS thereby resulting in a 2% (v/v) bead suspension.

T2 sequence (Q00987 whole entry): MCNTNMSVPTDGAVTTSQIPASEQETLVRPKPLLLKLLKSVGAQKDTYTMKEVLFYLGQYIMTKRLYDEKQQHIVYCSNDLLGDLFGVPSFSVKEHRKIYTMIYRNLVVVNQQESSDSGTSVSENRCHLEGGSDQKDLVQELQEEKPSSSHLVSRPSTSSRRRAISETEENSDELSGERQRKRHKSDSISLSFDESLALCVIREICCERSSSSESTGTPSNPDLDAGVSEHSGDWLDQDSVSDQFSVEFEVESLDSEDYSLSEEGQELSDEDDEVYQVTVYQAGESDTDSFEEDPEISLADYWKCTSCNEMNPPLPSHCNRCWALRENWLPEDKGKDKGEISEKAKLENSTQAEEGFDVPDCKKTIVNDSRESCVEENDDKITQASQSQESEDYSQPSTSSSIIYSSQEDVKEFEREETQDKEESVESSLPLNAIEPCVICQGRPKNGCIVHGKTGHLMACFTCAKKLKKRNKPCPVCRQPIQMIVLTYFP

| binding of cell-free expressed BODIPY-FL p53 probe to MDM bait (MDM2) | Compound | PKCα distribution, cytosol (PKCα) [%] | PKCα distribution, membrane (PKCα) [%] |
| --- | --- | --- | --- |
| – | CCCCCCCCCCCCCC(=O)O[C@@H]1[C@@H](C)[C@@]2(O)[C@@H](C=C(CO)C[C@]3(O)C(=O)C(C)=C[C@@H]23)[C@@H]2C(C)(C)[C@]12OC(C)=O [PMA, Phorbol-12-Myristate-13-Acetate] | 16±4 | 84±3 |
| selective binding | p53 probe: cell-free expressed p53 labeled only with BODIPY-FL using BODIPY-FL-tRNA COMPLETE | – | – |
